Experimental data reported in US10507242B2, “Combination therapy for treating breast cancer” (Genzyme Corporation, priority 2010, dated 2019).
Entries after “also recorded” stand apart in the source; their conditions may differ.

Legend:
[1] = system: 4T1 experimental metastases; assay: 4T1 model of experimental metastasis (intracardiac injection); type: in vivo, mouse; conditions: 4T1 cells injected into left ventricle of the heart
Text: 1D11 was combined with paclitaxel in both a xenograft (MDA-MB-231) breast cancer model and the syngeneic 4T1 model of breast cancer. […] The MDA-MB-231 and 4T1 models were also used to test combinatorial therapies with 1D11 and the platinum compounds cisplatin or carboplatin.

[2] = system: subcutaneous 4T1 tumors; assay: Study 2 (09-3494): primary tumor growth in the SQ 4T1 model; type: in vivo, Balb/c mice; conditions: for effect on SQ 4T1 primary tumor growth / tumor volume: antibody 10 mg/kg IP 3x/week, ixabepilone 3 mg/kg IV Q4Dx3, capecitabine 360 mg/kg oral QDx14, to Day 23
Text: Treatment groups, time points, and tissues were similar to the study described above.
For proper analysis of metastasis, all mice were sacrificed on study Day 23. […] The primary tumor was bisected, with one half frozen in OCT and the other half stored in RNALATER™ for qPCR analysis. The lungs were fixed in zinc-buffered formalin for enumeration of pulmonary mets and subsequent IHC analysis.

[3] = Study 2 (09-3494): toxicity observations; type: in vivo, Balb/c mice; conditions: ixabepilone 3 mg/kg, capecitabine 360 mg/kg, antibody 10 mg/kg
[4] = system: subcutaneous 4T1 tumors; assay: Study 3 (09-4255): primary tumor growth in the SQ 4T1 model; type: in vivo, BALB/c mice; conditions: for effect on SQ 4T1 primary tumor growth: antibody IP 3x/week, ixabepilone 3 mg/kg IV every four days x3, capecitabine 360 mg/kg oral 14 days; for day cohort reached size endpoint (mean tumor volume 1500 mm^3): per cohort
Text: The remaining 30 animals were included into a companion experiment to this study, looking for the effects of 1D11 on macrophage recruitment and activity (see below).
An entire cohort of mice was sacrificed when the average tumor volume for a single group within that cohort reached […] or greater.

[5] = system: subcutaneous 4T1 tumors; assay: Study 1 (09-3493): primary tumor growth, survival and time to endpoint in the syngeneic SQ 4T1 model; conditions: for effect on SQ 4T1 primary tumor growth: antibody 10 mg/kg IP 3x/week, ixabepilone 6 mg/kg IV Q4Dx3, capecitabine 360 mg/kg oral QDx14
Text: • Time points: Day 0: Investigators inject 50,000 4T1 cells+[…] ® subcutaneously in the right flank • Day 3: Investigators begin 2-3×/week tumor measurements • Day 6: DCM Staff begin antibody dosing IP 3×/week • DCM Staff begin ixabepilone dosing IV Q4D×3 • DCM Staff begin capecitabine dosing by oral gavage QD×14 • Animals were sacrificed when the primary tumors reached a volume of 2000 mm^3 or prior to the study takedown if they presented with moribund conditions (lack of grooming, labored breathing, cachexia, anorexia, or lethargy).
On Day 0, 150 twelve week-old female BALB/c mice each received subcutaneous injections of 50,000 4T1 cells in […] ® in the right flank. Tumor-bearing mice were routinely monitored and regular tumor measurements 2-3×/week were conducted beginning on Day 6. Tumor volume was determined using the following formula: Tumor Volume=Length×Width^2×0.52
Six days after tumor cell injection, when tumor volumes averaged 80 mm^3, the animals were size-matched and divided into twelve treatment groups of ten mice each. […] At this point investigators were blinded to treatment group designations and therapeutic administration was initiated. All mice received 10 mg/kg of either 1D11, 13C4 or antibody vehicle administered in 100 μl IP three times per week (Table 1). Specific cohorts of mice received additional treatments of ixabepilone (6 mg/kg in 200□1 IV Q4D×3), capecitabine (360 mg/kg in 100 μl by oral gavage QD×14) or both.
Mice were sacrificed once primary tumor volumes reached 2000 mm^3 or greater or if the tumors became ulcerated>20% of the tumor's surface area, or if the animals presented with moribund conditions (lack of grooming, labored breathing, cachexia, anorexia or lethargy). Upon sacrifice, gross necropsies were performed and tumors, lungs and other tissues bearing metastases were harvested.

[6] = Study 1 (09-3493): treatment-related adverse events; type: in vivo; conditions: ixabepilone 6 mg/kg, capecitabine 360 mg/kg, antibody 10 mg/kg
Text: • Time points: Day 0: Investigators inject 50,000 4T1 cells+[…] ® subcutaneously in the right flank • Day 3: Investigators begin 2-3×/week tumor measurements • Day 6: DCM Staff begin antibody dosing IP 3×/week • DCM Staff begin ixabepilone dosing IV Q4D×3 • DCM Staff begin capecitabine dosing by oral gavage QD×14 • Animals were sacrificed when the primary tumors reached a volume of 2000 mm^3 or prior to the study takedown if they presented with moribund conditions (lack of grooming, labored breathing, cachexia, anorexia, or lethargy). After sacrifice, the primary tumor was halved with one half embedded in OCT, and the other placed in zinc buffered formalin. The lungs and any other tissues bearing metastases were harvested and stored in zinc buffered formalin for enumeration of lung mets and IHC. • Tissues: Primary tumors m OCT and zinc buffered formalin, lungs harvested in zinc buffered formalin for assessment of metastasis and subsequent IHC.
Mice were sacrificed once primary tumor volumes reached 2000 mm^3 or greater or if the tumors became ulcerated>20% of the tumor's surface area, or if the animals presented with moribund conditions (lack of grooming, labored breathing, cachexia, anorexia or lethargy). Upon sacrifice, gross necropsies were performed and tumors, lungs and other tissues bearing metastases were harvested. […]

N.N.[Cl][Pt][Cl] [cisplatin]
inhibition of metastases [1]: able to inhibit metastases particularly to the bone

CCCCCOC(=O)Nc1nc(=O)n([C@@H]2O[C@H](C)[C@@H](O)[C@H]2O)cc1F [capecitabine]
average size of the tumors at the time of study take down ([2]; Day 23, average of cohort (vehicle, 13C4 or 1D11 plus the chemotherapeutic)): ~700 mm^3 | effect on SQ 4T1 primary tumor growth / tumor volume [2]: trend towards inhibited growth of the primary tumors; also recorded: Inhibition of tumor growth | toxicity during dosing [3]: no toxicity issues observed | effect on SQ 4T1 primary tumor growth [4]: very modest tumor growth inhibition; also recorded: Inhibition of tumor growth; also recorded: inhibited 4T1 tumor growth slightly | day cohort reached size endpoint (mean tumor volume 1500 mm^3) [4]: 27 study day | effect on SQ 4T1 primary tumor growth [5]: did inhibit tumor growth; also recorded: Inhibition of tumor growth; also recorded: inhibited 4T1 tumor growth but was not as efficacious as ixabepilone

C/C(=C\c1csc(C)n1)[C@@H]1C[C@@H]2O[C@]2(C)CCC[C@H](C)[C@H](O)[C@@H](C)C(=O)C(C)(C)[C@@H](O)CC(=O)N1 [ixabepilone]
treatment-related toxicities [6]: some peripheral neuropathy | effect on SQ 4T1 primary tumor growth / tumor volume [2]: significant reduction in tumor volume; also recorded: Inhibition of tumor growth | toxicity during dosing [3]: no toxicity issues observed; also recorded: no animals in the study displayed signs of toxicity | effect on SQ 4T1 primary tumor growth [4]: most efficacious at inhibiting 4T1 tumor growth as a monotherapy; also recorded: Inhibition of tumor growth | day cohort reached size endpoint (mean tumor volume 1500 mm^3) [4]: 29 study day | effect on SQ 4T1 primary tumor growth [5]: most efficacious at inhibiting 4T1 tumor growth compared to either antibody therapy or capecitabine; also recorded: Inhibition of tumor growth | survival ([5]; same dosing, sacrifice at tumor volume 2000 mm^3 or moribund): greater than that of either the antibody or the capecitabine cohorts
